The values below come from patent US20220389013A1, “PYRIDOPYRIMIDINONE COMPOUNDS AND APPLICATIONS THEREOF” (BeBetter Med Inc., priority 2020, published 2022).

One data set concerns H23 (KRAS G12C). Nature of the data set: Tumor cell proliferation inhibition assay (CellTiter-Glo), H23. In kind it is cell-based, Human. Conditions: 10% fetal bovine serum. As for the experimental part: (§1) The H358, H23 or MIA-Paca2 cells were digested, centrifuged and resuspended, and the cell density was measured with a Scepter automatic cell counter. Cells were diluted to a solution containing 44,000 cells per milliliter, then added to a 96-well culture plate at 90 μL per well. The 96-well plate was placed in a 5% CO2 incubator at 37° C., and after the cells were cultured for 24 hours, different concentrations of the compounds to be tested were added. Cells were incubated with compounds in the presence of 10% fetal bovine serum for 72 hours. The inhibition of cell growth was assessed by measuring ATP levels by using the CellTiter-Glo Luminescent Cell Viability Assay Kit (details in manufacturer's instructions). In brief, 30 μL of CellTiter-Glo reagent was added to each well and the plate was shaken for 10 minutes to induce cell lysis, then the fluorescent signal was detected and recorded with a Fluoroskan Ascent FL (Thermo). Maximum signal values were obtained from cells treated with DMSO for 72 hours. Minimum signal values were obtained with medium only (zero cell number). Inhibition rate %=(maximum signal value-compound signal value)/(maximum signal value-minimum signal value)×100%. Data were processed by using Graphpad prism5 software. IC50 values were calculated using a sigmoidal dose-response curve.
In general terms: ATP-based viability assays read luminescence as a measure of living cells.

For a further data set, the system named is MIA-Paca2 (KRAS G12C). The experiment in a line: Tumor cell proliferation inhibition assay (CellTiter-Glo), MIA-Paca2. The class given is cell-based, Human. Conditions: 10% fetal bovine serum. As for the experimental part: as §1
Another data set concerns H358 (KRAS G12C). Nature of the data set: Tumor cell proliferation inhibition assay (CellTiter-Glo), H358. The class given is cell-based, Human. The settings on record: 10% fetal bovine serum. As for the experimental part:
as §1

The nature of data set [1]: Pharmacokinetic (PK) experiment in rats by gavage. Conditions: rat, plasma, po, male SD rats, 20 mg/kg; for AUC(0-t): read-out: AUC0-24. The class given is in vivo. How it is done: Male SD rats, weighing 180-250 g, were fasted overnight before the test and stomach administrated with the test compound at 20 mg/kg. 15 minutes, 30 minutes, and 1, 2, 4, 6, 8, and 24 hours after administration, blood was taken from the end of the tail of the fracture, about 0.3 mL per time point, then placed in a centrifuge tube containing K2-EDTA, and centrifuged (2000 g, 10 min, at 4° C.). Plasma was collected and stored in an ultra-low temperature freezer at −80° C. 50 μL of plasma samples were vortexed with 135 μL of acetonitrile (containing 1 μg/mL internal standard) for protein precipitation and centrifuged, and the supernatant was collected for LC-MS/MS analysis.
After the rats oral administrated with the Pyridopyrimidinone compounds provided by the present disclosure, the absorption is good, and the blood exposure is relatively high. […] Cmax refers to the maximum plasma concentration, T1/2 is the half-life, AUC0-24 refers to the area under the 0-24 hour time-concentration curve, and AUC0-inf refers to the area under the 0-Inf time-concentration curve.

Usually IC50 stands for the concentration needed to halve the response being measured. Lower therefore signals inhibition by little substance. By melting point is commonly meant the temperature, or range, at which the solid turns liquid. By AUC(0-inf) is commonly meant the area under the concentration-time curve extrapolated to infinity. A lower AUC(0-inf) goes with less exposure. In general, Cmax refers to the maximum level reached in the sampled fluid or tissue. The term Tmax denotes the time at which the peak concentration occurs. The half-life is how long it takes for the measured level to halve. Low readings indicate rapid decline, high ones slow decline.

A value given as a limit tells only on which side of the number the result lay.

In the case of `C=CC(=O)N1CCN(c2nc(=O)n(-c3c(C)ccnc3C(C)C)c3nc(-c4c(F)c(F)cc5ccoc45)c(F)cc23)[C@@H](C)C1` (atropisomer, axis not shown; (P)) [Compound 74-2, 4-((S)-4-acryloyl-2-methylpiperazin-1-yl)-7-(5,6-difluorobenzofuran-7-yl)-6-fluoro-1(P)-(2-isopropyl-4-methylpyridin-3-yl)pyrido[2,3-d]pyrimidin-2(1H)-one], the half-maximal inhibitory concentration (IC50) was 0.1 to 0.5 µM in the data set on H23 (KRAS G12C) (72 hours), more than 0.5 µM in the data set on MIA-Paca2 (KRAS G12C) (72 hours) and more than 0.5 µM with H358 (KRAS G12C) (72 hours).

In turn, `C=CC(=O)N1C[C@H](C)N(c2nc(=O)n(-c3c(C)ccnc3C(C)C)c3nc(-c4c(F)ccc5ccoc45)c(Cl)cc23)C[C@H]1C` (atropisomer, axis not shown; (P)) [Compound 90-2, 4-((2S,5R)-4-acryloyl-2,5-dimethylpiperazin-1-yl)-6-chloro-7-(6-fluorobenzofuran-7-yl)-1(P)-(2-isopropyl-4-methylpyridin-3-yl)pyrido[2,3-d]pyrimidin-2(1H)-one] yielded a melting point of 152 to 161 °C. This compound also returned an IC50 with H23 (KRAS G12C) (72 hours) of less than 0.01 µM. Besides, in the data set with MIA-Paca2 (KRAS G12C) (72 hours), the IC50 is 0.05 to 0.1 µM. The IC50 in the data set on H358 (KRAS G12C) (72 hours) fell in the range of 0.05 to 0.1 µM.

Turning to `C=CC(=O)N1C[C@H](C)N(c2nc(=O)n(-c3c(C)ccnc3C(C)C)c3nc(-c4c(F)c(F)cc5ccoc45)c(F)cc23)C[C@H]1C` (atropisomer, axis not shown; (P)) [Compound 91-2, 4-((2S,5R)-4-acryloyl-2,5-dimethylpiperazin-1-yl)-7-(5,6-difluorobenzofuran-7-yl)-6-fluoro-1(P)-(2-isopropyl-4-methylpyridin-3-yl)pyrido[2,3-d]pyrimidin-2(1H)-one], the melting point was in the range of 161 to 173 °C. Also, the IC50 in the data set on H23 (KRAS G12C) (72 hours) lay in the range of 0.05 to 0.1 µM. This compound gave an IC50 in the data set with MIA-Paca2 (KRAS G12C) (72 hours) of more than 0.5 µM. The IC50 with H358 (KRAS G12C) (72 hours) is more than 0.5 µM.

In the case of `C=CC(=O)N1CCN(c2nc(=O)n(-c3c(C)ccnc3C(C)C)c3nc(-c4c(F)c(F)cc5ccoc45)c(Cl)cc23)[C@@H](C)C1` (atropisomer, axis not shown; (P)) [Compound 103-2, 4-((S)-4-acryloyl-2-methylpiperazin-1-yl)-6-chloro-7-(5,6-difluorobenzofuran-7-yl)-1(P)-(2-isopropyl-4-methylpyridin-3-yl)pyrido[2,3-d]pyrimidin-2(1H)-one], the half-inhibitory concentration (IC50) in the data set on H23 (KRAS G12C) (72 hours) is 0.01 to 0.05 µM; in the data set with MIA-Paca2 (KRAS G12C) (72 hours) it was 0.1 to 0.5 µM; in the data set with H358 (KRAS G12C) (72 hours), 0.1 to 0.5 µM.

Consider `C=CC(=O)N1CCN(c2nc(=O)n(-c3c(C)ccnc3C(C)C)c3nc(-c4c(F)c(F)cc5ccoc45)c(F)cc23)[C@@H](C)C1` [Compound 74, 4-((S)-4-acryloyl-2-methylpiperazin-1-yl)-7-(5,6-difluorobenzofuran-7-yl)-6-fluoro-1-(2-isopropyl-4-methylpyridin-3-yl)pyrido[2,3-d]pyrimidin-2(1H)-one], for which the IC50 is less than 0.01 µM with H23 (KRAS G12C) (72 hours), 0.05 to 0.1 µM with MIA-Paca2 (KRAS G12C) (72 hours) and 0.01 to 0.05 µM in the data set on H358 (KRAS G12C) (72 hours).

Turning to `C=CC(=O)N1C[C@H](C)N(c2nc(=O)n(-c3c(C)ccnc3C(C)C)c3nc(-c4c(F)ccc5ccoc45)c(F)cc23)C[C@H]1C` [Compound 89, 4-((2S,5R)-4-acryloyl-2,5-dimethylpiperazin-1-yl)-6-fluoro-7-(6-fluorobenzofuran-7-yl)-1-(2-isopropyl-4-methylpyridin-3-yl)pyrido[2,3-d]pyrimidin-2(1H)-one], the melting point fell in the range of 147 to 149 °C. Also, the IC50 in the data set on MIA-Paca2 (KRAS G12C) (72 hours) fell in the range of 0.01 to 0.05 µM. In the data set on H358 (KRAS G12C) (Homo sapiens, NCI-H358, 72 h), the IC50 lay in the range of 0.01 to 0.05 µM. Also, in data set [1], the AUC(0-inf) was 14100 ng·h/mL, the Cmax stood at 4300 ng/mL, the Tmax is 1 h and the half-life is 2.11 h. The AUC(0-t) in data set [1] came to 14000 ng·h/mL.

In the case of `C=CC(=O)N1C[C@H](C)N(c2nc(=O)n(-c3c(C)ccnc3C(C)C)c3nc(-c4c(F)c(F)cc5ccoc45)c(F)cc23)C[C@H]1C` [Compound 91, 4-((2S,5R)-4-acryloyl-2,5-dimethylpiperazin-1-yl)-7-(5,6-difluorobenzofuran-7-yl)-6-fluoro-1-(2-isopropyl-4-methylpyridin-3-yl)pyrido[2,3-d]pyrimidin-2(1H)-one], the IC50 in the data set with H23 (KRAS G12C) (72 hours) is less than 0.01 µM; in the data set with MIA-Paca2 (KRAS G12C) (72 hours), 0.05 to 0.1 µM; with H358 (KRAS G12C) (72 hours) it was 0.01 to 0.05 µM.

For `C=CC(=O)N1CCN(c2nc(=O)n(-c3c(C)ccnc3C(C)C)c3nc(-c4c(F)ccc5ccoc45)c(Cl)cc23)[C@@H](CC)C1` [Compound 99, 4-((S)-4-acryloyl-2-ethylpiperazin-1-yl)-6-chloro-7-(6-fluorobenzofuran-7-yl)-1-(2-isopropyl-4-methylpyridin-3-yl)pyrido[2,3-d]pyrimidin-2(1H)-one], the IC50 with H23 (KRAS G12C) (Homo sapiens, 72 h) is less than 0.01 µM; in the data set on MIA-Paca2 (KRAS G12C) (Homo sapiens, MIA PaCa-2, 72 h) it was 0.1 to 0.5 µM; with H358 (KRAS G12C) (Homo sapiens, NCI-H358, 72 h) it was 0.05 to 0.1 µM.

For the compound `C=CC(=O)N1CCN(c2nc(=O)n(-c3c(C)ccnc3C(C)C)c3nc(-c4c(F)c(F)cc5ccoc45)c(Cl)cc23)[C@@H](C)C1` [Compound 103, 4-((S)-4-acryloyl-2-methylpiperazin-1-yl)-6-chloro-7-(5,6-difluorobenzofuran-7-yl)-1-(2-isopropyl-4-methylpyridin-3-yl)pyrido[2,3-d]pyrimidin-2(1H)-one], the 50% inhibitory concentration (IC50) with H23 (KRAS G12C) (Homo sapiens, 72 h) was less than 0.01 µM. Moreover, the IC50 in the data set on MIA-Paca2 (KRAS G12C) (72 hours) was 0.01 to 0.05 µM. In the data set on H358 (KRAS G12C) (72 hours), this compound yielded an IC50 of less than 0.01 µM. In data set [1], the AUC(0-inf) worked out at 9420 ng·h/mL, the Cmax amounted to 3310 ng/mL, the Tmax is 1 h and the half-life was 3.77 h. Moreover, the AUC(0-t) in data set [1] amounted to 9400 ng·h/mL.

Regarding `C=CC(=O)N1C[C@H](C)N(c2nc(=O)n(-c3c(C)ccnc3C(C)C)c3nc(-c4c(F)c(F)cc5ccoc45)c(Cl)cc23)C[C@H]1C` [Compound 104, 4-((2S,5R)-4-acryloyl-2,5-dimethylpiperazin-1-yl)-6-chloro-7-(5,6-difluorobenzofuran-7-yl)-1-(2-isopropyl-4-methylpyridin-3-yl)pyrido[2,3-d]pyrimidin-2(1H)-one], in the data set on H23 (KRAS G12C) (Homo sapiens, 72 h), the IC50 is less than 0.01 µM. This compound registered an IC50 in the data set on MIA-Paca2 (KRAS G12C) (72 hours) of 0.01 to 0.05 µM. In the data set with H358 (KRAS G12C) (72 hours), this compound had an IC50 of less than 0.01 µM. Moreover, in data set [1], the AUC(0-inf) came to 13000 ng·h/mL, the peak concentration (Cmax) was 2110 ng/mL, the Tmax was 2 h and the half-life is 2.46 h. In data set [1], the AUC(0-t) stood at 13000 ng·h/mL.

`C=CC(=O)N1CCN(c2nc(=O)n(-c3c(C)nc(C)nc3C(C)C)c3nc(-c4c(F)ccc5ccoc45)c(F)cc23)[C@@H](C)C1` [Compound 117, 4-((S)-4-acryloyl-2-methylpiperazin-1-yl)-6-fluoro-7-(6-fluorobenzofuran-7-yl)-1-(4-isopropyl-2,6-dimethylpyrimidin-5-yl)pyrido[2,3-d]pyrimidin-2(1H)-one] returned a melting point of 133 to 136 °C. This compound also displayed an IC50 in the data set with MIA-Paca2 (KRAS G12C) (Homo sapiens, MIA PaCa-2, 72 h) of 0.05 to 0.1 µM. This compound also came in with an IC50 in the data set on H358 (KRAS G12C) (Homo sapiens, NCI-H358, 72 h) of 0.05 to 0.1 µM.

For `C=CC(=O)N1CCN(c2nc(=O)n(-c3c(C#N)cccc3C(C)C)c3nc(-c4c(F)ccc5ccoc45)c(F)cc23)[C@@H](C)C1` [Compound 123, 2-(4-((S)-4-acryloyl-2-methylpiperazin-1-yl)-6-fluoro-7-(6-fluorobenzofuran-7-yl)-2-oxopyrido[2,3-d]pyrimidin-1(2H)-yl)-3-isopropylbenzonitrile], the melting point lay in the range of 146 to 149 °C. For the same compound, the IC50 with MIA-Paca2 (KRAS G12C) (Homo sapiens, MIA PaCa-2, 72 h) was in the range of 0.05 to 0.1 µM. In the data set with H358 (KRAS G12C) (Homo sapiens, NCI-H358, 72 h), this compound gave an IC50 of 0.01 to 0.05 µM.

For the compound `C=CC(=O)N1CCN(c2nc(=O)n(-c3c(C#N)cccc3C(C)C)c3nc(-c4c(F)ccc5ccoc45)c(Cl)cc23)[C@@H](C)C1` [Compound 124, 2-(4-((S)-4-acryloyl-2-methylpiperazin-1-yl)-6-chloro-7-(6-fluorobenzofuran-7-yl)-2-oxopyrido[2,3-d]pyrimidin-1(2H)-yl)-3-isopropylbenzonitrile], the melting point lay in the range of 164 to 166 °C. Also, in the data set on MIA-Paca2 (KRAS G12C) (Homo sapiens, MIA PaCa-2, 72 h), the IC50 lay in the range of 0.01 to 0.05 µM. In the data set with H358 (KRAS G12C) (Homo sapiens, NCI-H358, 72 h), this compound gave an IC50 of less than 0.01 µM.

`C=CC(=O)N1CCN(c2nc(=O)n(-c3c(CO)cccc3C(C)C)c3nc(-c4c(F)ccc5ccoc45)c(F)cc23)[C@@H](C)C1` [Compound 126, 4-((S)-4-acryloyl-2-methylpiperazin-1-yl)-6-fluoro-7-(6-fluorobenzofuran-7-yl)-1-(2-(hydroxymethyl)-6-isopropylphenyl)pyrido[2,3-d]pyrimidin-2(1H)-one] yielded a melting point of 146 to 149 °C. The concentration for half-maximal inhibition (IC50) in the data set with MIA-Paca2 (KRAS G12C) (Homo sapiens, MIA PaCa-2, 72 h) fell in the range of 0.1 to 0.5 µM. Further, the IC50 with H358 (KRAS G12C) (Homo sapiens, NCI-H358, 72 h) lay within 0.05 to 0.1 µM.
